Source: patent publication US20130045869A1, “COMPLEXES OF HERBICIDAL CARBOXYLIC ACIDS AND AMINE-CONTAINING POLYMERS OR OLIGOMERS” (Dow AgroSciences LLC, priority 2011, published 2013)

Tests used:
[1] = Relative volatility by thermo-gravimetric analysis; assay type: physicochemical; conditions: TGA at 120° C.
Method: Using a TA Instruments (New Castle, Del.) Model TGA 2050 thermo-gravimetric analyzer, a typical thermo-gravimetric analysis (TGA) is carried out by (a) weighing out 10-20 mg of the sample, (b) loading it into an aluminum or platinum holding pan, and (c) measuring and recording the mass loss of the sample over time at a constant temperature of 120° C. The volatility of the sample is obtained as the rate of mass loss per unit time when the loss rate becomes constant (reaches steady state).
Relative volatility is defined as the ratio of the volatility of a given 2,4-D or triclopyr sample over that of the corresponding 2,4-D DMA or triclopyr triethylamine salt that was arbitrarily set at 100.

Eye irritation testing = assay type: in vivo, New Zealand albino rabbit; conditions: 456 gae/L, 21 days after application, most sensitive animal; for Eye irritation score, Iris: maximum 2; for Eye irritation score, Cornea: maximum 4; for Eye irritation score, Conjunctivae: maximum 10
Method: Eye irritation testing was done according to guideline testing requirements specified in: (1) OECD Guideline for the Testing of Chemicals, Procedure 405 (2002), (2) U.S. EPA Health Effects Test Guidelines, OPPTS 870.2400 (1998), (3) JMAFF 12-Nouan-1847 (2000) and (4) Official Journal of the European Communities, Methods for the Determination of Toxicity, Part B.5 (Eye Irritation), Directive 2004/73/ED, 29 Apr. 2004.
Test material formulations were administered to New Zealand albino rabbit (1 to 3 animals per formulation) to determine the potential to produce eye irritation. The material was applied in a single dose to the conjuctival sac of one eye of each animal. The other eye remained untreated and served as a control. Irritation of the cornea, iris and conjunctivae were evaluated 21 days after application of the test material.
The results are reported as irritation present in the cornea, iris and conjunctivae in the most sensitive animal 21 days after application. Testing was conducted with the following concentrates: (1) 2,4-D PEI complex (Lupasol® G20 complex, 456 grams acid equivalent per liter (gae/l)), (2) 2,4-D DMA (dimethyl ammonium salt, 456 gae/l), (3) 2,4-D DMEA (dimethylethyl ammonium salt, 456 gae/l), (4) 2,4-D IPA (isopropyl ammonium salt, 456 gae/l), and (5) 2,4-D TIPA (triisopropanol ammonium salt, 456 gae/l).

[2] = ratio to triclopyr triethylamine salt set at 100
[3] = ratio to 2,4-D DMA salt set at 100

SMILES: CCCCOCCOC(=O)COc1nc(Cl)c(Cl)cc1Cl [triclopyr butoxyethyl ester]
- Relative volatility [1, 2]: 302

SMILES: CC(C)N.O=C(O)COc1ccc(Cl)cc1Cl [2,4-D IPA]
- Eye irritation score, Iris (Eye irritation testing): 0
- Eye irritation score, Cornea (Eye irritation testing): 4
- Eye irritation score, Conjunctivae (Eye irritation testing): 6

SMILES: CNC.O=C(O)COc1ccc(Cl)cc1Cl [2,4-D DMA salt, 2,4-D dimethylamine (DMA) salt]
- Relative volatility [1, 3]: 100
- Eye irritation score, Iris (Eye irritation testing): 1
- Eye irritation score, Cornea (Eye irritation testing): 3
- Eye irritation score, Conjunctivae (Eye irritation testing): 3

SMILES: CCCCC(CC)COC(=O)COc1ccc(Cl)cc1Cl (stereo not drawn) [2,4-D ethylhexyl ester]
- Relative volatility [1, 3]: 1201

SMILES: CCN(CC)CC.O=C(O)COc1nc(Cl)c(Cl)cc1Cl [triclopyr triethylamine salt]
- Relative volatility [1, 2]: 100

SMILES: O=C(O)COc1nc(Cl)c(Cl)cc1Cl [triclopyr acid]
- Relative volatility [1, 2]: 135

SMILES: CC(O)CN(CC(C)O)CC(C)O.O=C(O)COc1ccc(Cl)cc1Cl (stereo not drawn) [2,4-D TIPA]
- Eye irritation score, Iris (Eye irritation testing): 0
- Eye irritation score, Cornea (Eye irritation testing): 3
- Eye irritation score, Conjunctivae (Eye irritation testing): 1

SMILES: O=C(O)COc1ccc(Cl)cc1Cl [2,4-D acid tech, 2,4-dichlorophenoxyacetic acid]
- Relative volatility [1, 3]: 249
